What was measured:
mice calvarias = assay: Mice calvarias loss inhibition, bone loss induced by interleukin-1 in vivo; conditions: IL-1 collagen sponge, 0.2 mg per mouse intraperitoneally, 7 days, vs vehicle
Procedure: Specifically, 5 to 7 ml of collagen (Cellmatrix type I-A; Wako co., Japan, Cat. No. 637-00653) was poured into petri dish (60×15 mm), and lyophlilized. The lyophlilized collagen sponge was made to the desired size which is appropriate to be implanted, and in order to induce local bone loss of mice, interleukin-1 (Peprotech; London, GB) was diluted with phosphate-buffered-saline solution to 2 μg per one mouse to be treated onto collagen sponge. The collagen sponge treated with interleukin-1 was contacted to the surface of mice carvarias through mice scalp incision, was implanted to 5 mice (5-week-male, ICR strain) in the test group and the control group, respectively, and was sutured. 7 days later, the mice were sacrificed to obtain calvarias. The test group was intraperitoneally injected with the dose of 0.2 mg of the compound obtained in Example 8 per one mouse from the next day of surgery to the day before the sacrifice. The control group was intraperitoneally injected with 100 μl of DMSO. After 7 days, the mice were sacrificed, and the extracted calvarias were washed 3-4 times with phosphate-buffered-saline solution and fixed in 4% paraformaldehyde for 24 hrs. Micro-computed tomography scan (SMX-90CT; Shimadzu, Japan) was performed for the fixed mice calvarias and 3-dimensional image thereof was obtained.
Further, bone mineral content (BMC) was measured by using TRI 3D-BON (RATOC system Engineering Co., Tokyo, Japan) based on the 3-dimensional image (see Volume Graphics, VG studio Max 1.2.1).
Histological studies were conducted in order to investigate the number of osteoclastic cells directly relating to bone loss. Specifically, the calvarias were decalcificated (solution was replaced every 2-3 days) with 12% EDTA (pH 7.2-7.4) for 14 days and embedded in paraffin. TRAP staining (Sigma-Aldrich) was performed on the embedded whole calvarias.
In addition, the whole area of osteoclast which is red-stained, that is, TRAP-positive was shown in graph by using image J program.
The procedure of the Experimental Example 3 was repeated except for using the compound obtained in Example 94 instead of the compound obtained in Example 8, to examine the effect on mice calvarias loss inhibition.
Histological studies were conducted in order to investigate the number of osteoclastic cells directly relating to bone loss. Specifically, the calvarias were decalcificated (solution was replaced every 2-3 days) with 12% EDTA (pH 7.2-7.4) for 14 days and embedded in paraffin.
H-E (Hematotoxin-eosin) and TRAP staining (Sigma-Aldrich) were performed on the embedded whole calvarias. The results are given in FIGS. 4b and 4c, respectively. In addition, the whole area of osteoclast of the test and control group was shown in graph by using image J program.

Runx2 = Runx2 activity, 6xOSE2-Luc luciferase reporter in transfected C2C12 cells; type: cell-based, Mouse; conditions: Mus musculus, 24 hrs, read-out: luciferase activity relative to control set as 1
Procedure, shortened: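 C2C12 mouse premyoblasts carrying the 6xOSE2-Luc reporter (six tandem Runx2-binding OSE2 sites in pGL3) switched to 5% FBS DMEM after 24 h and treated with compound at 2.5, 5.0, 10 or 20 μM. After 24 h, lysate luciferase measured by dual-luciferase assay, expressed relative to DMSO vehicle set as 1.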

rats calvarias = assay: Bone formation in rats calvarias loss site in vivo; conditions: 8 mm calvarias hole, collagen sponge with 0.2 mg or 0.5 mg compound, vs control
Procedure: To investigate the effect of the amide compound according to the present invention on bone formation, bone formation ability of the said compound in the rats calvarias loss site was examined in vivo by using the compounds obtained in Example 8 and 27.
Specifically, the hole of the diameter of 8 mm was made in calavarias of rats by using trephine bur, and the collagen sponge prepared in Experimental Example 3 treated with 0.2 mg of the compound obtained in Example 8 in 15 μl of DMSO was placed at the site of loss. As a control group, the collagen sponge treated with only 100 μl of DMSO was treated at the site of loss. After 6 days from the suture of the calvarias scalp, the rats were sacrificed to obtain calvarias. Micro-computed tomography scan (SMX-90CT; Shimadzu, Japan) was performed and 3-dimensional image thereof was obtained.
Further, bone mineral content (BMC) of the test and control group was measured by using TRI 3D-BON (RATOC system Engineering Co., Tokyo, JP) based on the 3-dimensional image (see, Volume Graphics, VG studio Max 1.2.1). […]
Further, bone mineral content (BMC) of the test and control group was measured by using TRI 3D-BON (RATOC system Engineering Co., Tokyo, JP) based on the 3-dimensional image.

Structure (SMILES)	bone loss in calvarias (micro-computed tomography) (mice calvarias)	osteoclast (TRAP-positive area) (mice calvarias)	fold induction at 2.5 µM (Runx2)	fold induction at 5 µM (Runx2)	fold induction at 10 µM (Runx2)	fold induction at 20 µM (Runx2)	BMC (bone content) (rats calvarias)
Cc1cc(C(=O)NCCCCCC(=O)NO)ccc1-c1ccccc1 [Example 94, N-(5-(hydroxycarbamoyl)pentyl)-3-methyl-4-phenylbenzamide]	suppressed	remarkably reduced	1.6	3.4	7.5	10.7	unexpectedly increased
COc1cc(C(=O)NCc2ccc(C(=O)Nc3ccccc3N)cc2)c(C)c(-c2cc(F)cc(F)c2)c1OC [Example 79, N-(2-aminophenyl)-4-((2-methyl-3-(3,5-difluorophenyl)-4,5-dimethoxy-benzamido)methyl)benzamide]			13.5	24.4	31.3	31.7	
Nc1ccccc1NC(=O)c1ccc(CN2Cc3c(cccc3-c3cc(F)cc(F)c3)C2=O)cc1 [Example 17, N-(2-aminophenyl)-4-((4-(3,5-difluorophenyl)-1-oxoisoindolin-2-yl)methyl)benzamide]			11.2	14.7	16.3	15.8	
COc1cc(C(=O)NCc2ccc(C(=O)Nc3ccccc3N)cc2)c(C)c(-c2cncnc2)c1OC [Example 75, N-(2-aminophenyl)-4-((2-methyl-4,5-dimethoxy-3-(5-pyrimidinyl)-benzamido)methyl)benzamide]			2.5	4.7	12.4	27.8	
Nc1ccccc1NC(=O)c1ccc(CN2Cc3cc(-c4ccc5c(c4)OCO5)ccc3C2=O)cc1 [Example 66, N-(2-aminophenyl)-4-((5-(benzo[d][1,3]dioxol-6-yl)-1-oxoisoindolin-2-yl)methyl)benzamide]			14.2	9.4	7.2	7.2	
COc1cc(C(=O)NCc2ccc(C(=O)Nc3ccccc3N)cc2)c(C)c(Br)c1OC [Example 73, N-(2-aminophenyl)-4-((3-bromo-4,5-dimethoxy-2-methylbenzamido)methyl)benzamide]			24.2	32.3	30.8	25.9	
Cc1cc(C)cc(-c2ccc3c(c2)CN(Cc2ccc(C(=O)Nc4ccccc4N)cc2)C3=O)c1 [Example 62, N-(2-aminophenyl)-4-((5-(3,5-dimethylphenyl)-1-oxoisoindolin-2-yl)methyl)benzamide]			4.6	5.8	5.5	6.6	
Nc1ccccc1NC(=O)c1ccc(CN2Cc3c(cccc3-c3ccc(F)cc3)C2=O)cc1 [Example 30, N-(2-aminophenyl)-4-((4-(4-fluorophenyl)-1-oxoisoindolin-2-yl)methyl)benzamide]			13.5	20.5	28.8	30.4	
COc1ccc(-c2cccc3c2CN(Cc2ccc(C(=O)Nc4ccccc4N)cc2)C3=O)cc1 [Example 15, N-(2-aminophenyl)-4-((4-(4-methoxyphenyl)-1-oxoisoindolin-2-yl)methyl)benzamide]			7.4	10.4	12	14	
Nc1ccccc1NC(=O)CCCCCN1Cc2c(Br)cccc2C1=O [Example 36, N-(2-aminophenyl)-6-(4-bromo-1-oxoisoindolin-2-yl)hexanamide]			2.1	3	8	13	
Cc1cc(C)cc(-c2ccc3c(c2)CN(CCCCCC(=O)NO)C3=O)c1 [Example 52, N-hydroxy-6-(5-(3,5-dimethylphenyl)-1-oxoisoindolin-2-yl)hexanamide]			2.4	4.7	12.6	20.4	
COc1cc2c(c(-c3ccccc3)c1OC)CN(Cc1ccc(C(=O)Nc3ccccc3N)cc1)C2=O [Example 2, N-(2-aminophenyl)-4-((5,6-dimethoxy-1-oxo-4-phenylisoindolin-2-yl)methyl)benzamide]			27.3	24.8	19.7	21.7	
Nc1ccccc1NC(=O)CCCCCN1Cc2c(cccc2-c2cccnc2)C1=O [Example 38, N-(2-aminophenyl)-6-(1-oxo-4-(pyridin-3-yl)isoindolin-2-yl)hexanamide]			3	8.2	23	43.3	
Nc1ccccc1NC(=O)c1ccc(CN2Cc3cc(-c4cccnc4)ccc3C2=O)cc1 [Example 61, N-(2-aminophenyl)-4-((1-oxo-5-(pyridin-3-yl)isoindolin-2-yl)methyl)benzamide]			9.6	10.6	14.2	15.6	
COc1ccc(-c2ccc3c(c2)CN(CCCCCC(=O)NO)C3=O)c(OC)c1 [Example 50, N-hydroxy-6-(5-(2,4-dimethoxyphenyl)-1-oxoisoindolin-2-yl)hexanamide]			1.9	5	22.1	42.7	
COc1ccc(-c2cccc3c2CN(Cc2ccc(C(=O)Nc4ccccc4N)cc2)C3=O)cn1 [Example 22, N-(2-aminophenyl)-4-((4-(6-methoxypyridin-3-yl)-1-oxoisoindolin-2-yl)methyl)benzamide]			12.4	9.5	10.2	10.3	
Nc1ccccc1NC(=O)c1ccc(CN2Cc3cc(-c4cc(F)cc(F)c4)ccc3C2=O)cc1 [Example 60, N-(2-aminophenyl)-4-((5-(3,5-difluorophenyl)-1-oxoisoindolin-2-yl)methyl)benzamide]			5.4	5.9	7	8.6	
O=C(CCCCCN1Cc2c(cccc2-c2cc(F)cc(F)c2)C1=O)NO [Example 42, 6-(4-(3,5-difluorophenyl)-1-oxoisoindolin-2-yl)-N-hydroxyhexanamide]			3.1	10.8	22.3	17.9	
